Data: patent publication US20260209220A1, “SUBSTITUTED TETRAHYDROPYRROLO-PYRIDINONE COMPOUNDS AND THEIR USE IN TREATING MEDICAL CONDITIONS” (Karuna Therapeutics, Inc., priority 2022, published 2026)

Key:
[1] = target: T1, human M4 receptor (Homo sapiens, UniProt P08173); assay: M4 GTPγS PAM assay (CHO-K1 membranes, 35S-GTP binding, with EC20 acetylcholine); format: biochemical; settings: with EC20 acetylcholine (40 nM)
T1 construct: expressed in transfected cells; host or cells: CHO-K1 cells (membranes)
T1 sequence (P08173 1-479): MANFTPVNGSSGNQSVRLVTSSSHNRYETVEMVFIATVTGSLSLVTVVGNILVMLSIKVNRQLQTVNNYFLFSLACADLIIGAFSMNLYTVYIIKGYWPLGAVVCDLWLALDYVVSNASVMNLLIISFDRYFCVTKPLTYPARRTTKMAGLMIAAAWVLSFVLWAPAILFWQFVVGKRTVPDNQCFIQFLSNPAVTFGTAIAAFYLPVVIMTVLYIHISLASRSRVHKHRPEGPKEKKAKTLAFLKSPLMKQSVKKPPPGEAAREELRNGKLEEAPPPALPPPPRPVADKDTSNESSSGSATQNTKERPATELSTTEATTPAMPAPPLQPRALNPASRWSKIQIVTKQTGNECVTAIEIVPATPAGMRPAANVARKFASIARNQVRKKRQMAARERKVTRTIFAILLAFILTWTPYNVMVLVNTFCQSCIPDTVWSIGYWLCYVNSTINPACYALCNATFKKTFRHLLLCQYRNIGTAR
Protocol: The M4 GTPγS PAM method was used. Membranes were prepared for GTPgS binding assays from CHO-K1 cells stably expressing human M4 receptor. Briefly, cells were grown in 5-layer cell culture flasks. Cells were washed with 50 mL of PBS and then dissociated with 0.05% trypsin. Dissociated cells were then collected by centrifugation at 650×g for 8 minutes at 4° C. Pellets were washed again in PBS by centrifugation and resuspended in 30 mL of 20 mM HEPES, 10 mM EDTA, pH 7.4. After sitting on ice for 30 min, membranes were collected by centrifugation at 50000×g for 15′ at 4° C., resuspended in 30 mL of 20 mM HEPES, 0.1 mM EDTA, pH 7.4 and collected again by centrifugation. Pellets were then washed twice by centrifugation in 30 mL of 20 mM HEPES, pH 7.4, and stored at −80° C. until the day of the assay. On the day of the assay, pellets were thawed on ice and resuspended in 1 mL of 20 mM HEPES, pH 7.4, 10 mM MgCl2, 100 mM NaCl using dounce homogenization. Membrane protein concentration is determined by BCA protein assay (Promega, Madison, WI) according to Promega guidelines.
On the day of the assay, serial dilutions of test PAM compounds were brought up in assay buffer (20 mM HEPES, 10 mM MgCl2, 100 mM NaCl) at 4X final assay concentration. […] of membrane homogenates (containing […] of membrane protein) were prepared in assay buffer supplemented with GDP at […] final assay concentration (final assay concentration of GDP is 5 μM for M2 and 0.1 μM for M4) and dispensed into 96 well polypropylene, U-bottom Greiner plates. 25 ml of vehicle or test PAM compound at 4× of final assay concentration diluted in the assay buffer were added to membrane and plates are incubated for 10-15 minutes at room temperature with gentle shaking. Then, […] of EC20 acetylcholine in assay buffer at 4× final assay concentration was added to assay plates (EC20 final assay concentrations was 40 nM for human M4).
Plates were then incubated, with shaking, for an additional 10-15 minutes. […] of 0.4 nM 35S-GTP (Perkin Elmer, Waltham, MA) in assay buffer was added to assay mixtures. The binding reaction is left on the shaker for 1 hour at room temperature. Membranes in assay reactions were then transferred to GF/C filter plates (Unifilter, Perkin Elmer) and washed three times using a FilterMate Harvester (Perkin Elmer) with cold assay buffer containing no GDP. Filter plates were then dried at 40° C. overnight followed by the addition of […] of Beta Plate Scintillation liquid. Plates are top and bottom sealed before being read on TopCount scintillation counter (Perkin Elmer, Waltham, MA).

[2] = target: T2, hM4 receptors (Homo sapiens, UniProt P08173); assay: Human M4 PAM PERK assay (CHO cells, TR-FRET, with EC20 acetylcholine); format: cell-based
T2 construct: expressed in transfected cells; host or cells: CHO cells
T2 sequence (P08173 1-479): T1 sequence (P08173 1-479)
Protocol: (§1) Chinese hamster ovary (CHO) cells expressing either hM4 or rM4 receptors were frozen in assay ready vials (5×10^6 cells/vial) after bulking-up in culture. The day before an assay, vial(s) were thawed and cells seeded in 384 well white proxiplates at 1000/well for hM4 cells and at 2000/well for rM4 cells, in 10 μL of growth media (Hams/F12 with glutamax and 10% FCS) and incubated overnight at 37° C./5% CO2.
(§2) On the following morning, the growth media was removed by ‘flicking out’ over a bin, patting the inverted plate onto tissue, and then replacing with 10 μL of wash media (Hams/F12 with glutamax and 8 mM HEPES, NB: serum free). Then, the wash media was removed in the same way and replaced with 8 μL/well of the serum free media. Plates were then re-incubated for a further 4 hours at 37° C./5% CO2.
(§3) Compounds for testing were solubilized to 10 mM in DMSO and compound addition plates, consisting of ten-point concentration response curves (CRC) in duplicate points (10 μM top concentration, ½ log dilution series), were prepared by acoustic dispensing and the compound management group.
(§4) After the 4-hour incubation in serum free media, a 4 μL aliquot of the 3×compound solution containing an EC20 of acetylcholine (10 nM final concentration) was added to the cell plate using a 384 well plate to plate transfer. Then, the plate lid was replaced, and the cells incubated for 5 mins at 37° C./5% CO2. Following this final incubation, all cellular processes were stopped by the addition of 4 μL/well of lysis and blocking buffer and plates were incubated for 30 minutes at RT on an orbital shaker (gentle setting). Then, a final addition of 4 μL/well of antibody detection mix, containing both the Europium-Cryptate (donor) and d2 (acceptor) tagged detection components, was added followed by a further 2-hour incubation at RT, and then the plate was read using a TR-FRET (time resolved fluorescence resonance energy transfer) based protocol.

[3] = target: T3, rM4 receptors (Rattus norvegicus, UniProt P08485); assay: Rat M4 PAM PERK assay (CHO cells, TR-FRET, with EC20 acetylcholine); format: cell-based
T3 construct: expressed in transfected cells; host or cells: CHO cells
T3 sequence (P08485 1-478): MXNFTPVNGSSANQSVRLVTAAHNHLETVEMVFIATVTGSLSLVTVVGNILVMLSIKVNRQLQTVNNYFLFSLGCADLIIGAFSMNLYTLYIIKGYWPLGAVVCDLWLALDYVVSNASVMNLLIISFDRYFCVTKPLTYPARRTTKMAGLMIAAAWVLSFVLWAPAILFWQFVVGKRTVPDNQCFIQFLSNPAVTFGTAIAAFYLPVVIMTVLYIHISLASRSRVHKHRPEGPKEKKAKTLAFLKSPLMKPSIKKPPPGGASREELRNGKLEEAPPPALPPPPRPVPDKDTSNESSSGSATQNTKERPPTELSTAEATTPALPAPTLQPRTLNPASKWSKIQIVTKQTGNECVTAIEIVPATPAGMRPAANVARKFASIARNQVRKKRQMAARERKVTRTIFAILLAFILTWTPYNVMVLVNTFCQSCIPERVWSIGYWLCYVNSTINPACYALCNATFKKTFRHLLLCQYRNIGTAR
Protocol: as §1, §2, §3, §4

Compound | EC50 [1] [nM] | EC50 [2] [nM] | EC50 [3] [nM]
Cc1c2c(n(C)c(=O)c1C)CN(C(=O)CC1CN(c3ccc(C4CC4)c(F)c3)C1C)C2 (single isomer, unassigned) [Compound I-62] | 200 to 1000 | 200 to 1000 | 200 to 1000
Cc1cc(=O)n(C)c2c1CN(C(=O)C(C)(C)C1CN(c3ccnc(C(F)(F)F)c3)C1)C2 [Compound I-41, 1,4-Dimethyl-6-(2-methyl-2-(1-(2-(trifluoromethyl)pyridin-4-yl)azetidin-3-yl)propanoyl)-1,5,6,7-tetrahydro-2H-pyrrolo[3,4-b]pyridin-2-one] | > 1000 | > 1000 | –
Cc1c2c(n(CC(F)(F)F)c(=O)c1Cl)CN(C(=O)CC1CN(c3ccccc3)C1)C2 [Compound I-94] | – | 200 to 1000 | 200 to 1000
Cc1cc(=O)n(CC2CC2)c2c1CN(C(=O)CC1CN(c3ccnc(C(F)(F)F)c3)C1)C2 [Compound I-101, 1-(Cyclopropylmethyl)-4-methyl-6-(2-(1-(2-(trifluoromethyl)pyridin-4-yl)azetidin-3-yl)acetyl)-1,5,6,7-tetrahydro-2H-pyrrolo[3,4-b]pyridin-2-one] | – | 200 to 1000 | 200 to 1000
Cc1cc(=O)n(C2CC2)c2c1CN(C(=O)CC1CN(c3ccnc(C(F)(F)F)c3)C1)C2 [Compound I-103, 1-Cyclopropyl-4-methyl-6-(2-(1-(2-(trifluoromethyl)pyridin-4-yl)azetidin-3-yl)acetyl)-1,5,6,7-tetrahydro-2H-pyrrolo[3,4-b]pyridin-2-one] | – | 200 to 1000 | > 1000
CSc1c2c(n(C)c(=O)c1C)CN(C(=O)CC1CN(c3ccnc(C(F)(F)F)c3)C1)C2 [Compound I-104, 1,3-Dimethyl-4-(methylthio)-6-(2-(1-(2-(trifluoromethyl)pyridin-4-yl)azetidin-3-yl)acetyl)-1,5,6,7-tetrahydro-2H-pyrrolo[3,4-b]pyridin-2-one] | – | 200 to 1000 | > 1000
Cc1cc(=O)n(CC(F)(F)F)c2c1CN(C(=O)CC1CN(c3ccc(C(F)(F)F)cc3)C1)C2 [Compound I-105, 4-Methyl-1-(2,2,2-trifluoroethyl)-6-(2-(1-(4-(trifluoromethyl)phenyl)azetidin-3-yl)acetyl)-1,5,6,7-tetrahydro-2H-pyrrolo[3,4-b]pyridin-2-one] | – | > 1000 | 200 to 1000
Cc1cc2c(n(C)c1=O)CN(C(=O)CC1CN(c3ccnc(C(F)(F)F)c3)C1)C2 [Compound I-112, 1,3-Dimethyl-6-(2-(1-(2-(trifluoromethyl)pyridin-4-yl)azetidin-3-yl)acetyl)-1,5,6,7-tetrahydro-2H-pyrrolo[3,4-b]pyridin-2-one] | – | 50 to 200 | > 1000

Now from value to molecule:

EC50 [1] [nM] | EC50 [2] [nM] | EC50 [3] [nM] | Compound
< 50 | < 50 | < 50 | Cc1c2c(n(C)c(=O)c1C)CN(C(=O)CC1CN(c3ccc(C4CC4)c(F)c3)C1C)C2 (single isomer, unassigned) [Compound I-61]
– | 50 to 200 | 200 to 1000 | Cc1c2c(n(CC(F)(F)F)c(=O)c1Cl)CN(C(=O)CC1CN(c3cncnc3)C1)C2 [Compound I-96]
– | < 50 | 200 to 1000 | COc1c2c(n(C)c(=O)c1C)CN(C(=O)CC1CN(c3ccnc(C(F)(F)F)c3)C1)C2 [Compound I-97, 4-Methoxy-1,3-dimethyl-6-(2-(1-(2-(trifluoromethyl)pyridin-4-yl)azetidin-3-yl)acetyl)-1,5,6,7-tetrahydro-2H-pyrrolo[3,4-b]pyridin-2-one]
– | < 50 | > 1000 | COc1c2c(n(C)c(=O)c1C)CN(C(=O)CC1CN(c3ccncn3)C1)C2 [Compound I-98]
– | 50 to 200 | > 1000 | CCc1c(C)c2c(n(C)c1=O)CN(C(=O)CC1CN(c3ccnc(C(F)(F)F)c3)C1)C2 [Compound I-107, 3-Ethyl-1,4-dimethyl-6-(2-(1-(2-(trifluoromethyl)pyridin-4-yl)azetidin-3-yl)acetyl)-1,5,6,7-tetrahydro-2H-pyrrolo[3,4-b]pyridin-2-one]
– | 50 to 200 | > 1000 | Cc1c2c(n(C)c(=O)c1C(F)(F)F)CN(C(=O)CC1CN(c3cccnc3)C1)C2 [Compound I-108, 1,4-Dimethyl-6-(2-(1-(pyridin-3-yl)azetidin-3-yl)acetyl)-3-(trifluoromethyl)-1,5,6,7-tetrahydro-2H-pyrrolo[3,4-b]pyridin-2-one]
– | 50 to 200 | 200 to 1000 | Cc1c2c(n(C)c(=O)c1C1CC1)CN(C(=O)CC1CN(c3ccnc(C(F)(F)F)c3)C1)C2 [Compound I-109, 3-Cyclopropyl-1,4-dimethyl-6-(2-(1-(2-(trifluoromethyl)pyridin-4-yl)azetidin-3-yl)acetyl)-1,5,6,7-tetrahydro-2H-pyrrolo[3,4-b]pyridin-2-one]
– | < 50 | 200 to 1000 | Cc1c2c(n(C)c(=O)c1Br)CN(C(=O)CC1CN(c3ccnc(C(F)(F)F)c3)C1)C2 [Compound I-110, 3-Bromo-1,4-dimethyl-6-(2-(1-(2-(trifluoromethyl)pyridin-4-yl)azetidin-3-yl)acetyl)-1,5,6,7-tetrahydro-2H-pyrrolo[3,4-b]pyridin-2-one]
– | 50 to 200 | 200 to 1000 | Cc1c2c(n(C)c(=O)c1C#N)CN(C(=O)CC1CN(c3ccnc(C(F)(F)F)c3)C1)C2 [Compound I-111, 1,4-Dimethyl-2-oxo-6-(2-(1-(2-(trifluoromethyl)pyridin-4-yl)azetidin-3-yl)acetyl)-2,5,6,7-tetrahydro-1H-pyrrolo[3,4-b]pyridine-3-carbonitrile]
– | < 50 | 50 to 200 | Cc1cc(=O)n(C)c2c1C(C)N(C(=O)CC1CN(c3ccnc(C(F)(F)F)c3)C1)C2 (centres unmarked) [Compound I-114]
